Common to all, as to assay: relative viability (nuclei count vs DMSO), 5 days (fraction); higher = more cells survive
Compound in test [1]: Cc1nc(Nc2ncc(C(=O)Nc3c(C)cccc3Cl)s2)cc(N2CCN(CCO)CC2)n1 [Dasatinib] + N=C(N)NC(=N)NCCc1ccccc1 [Phenformin] (partner 250 µM)
In short, it runs like this:
(§1)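 Lung cancer cell lines were pin-tool dosed in 1536-well plates on the day after seeding, with either a lone drug or a fixed anchor-drug dose plus five library-drug doses (not always all listed) in √10 steps. Nuclei were counted on 4× images after 5 days. Relative viability is the ratio of treated-well to vehicle-well nuclei counts, with each value a median of duplicate plates.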

Compound in test [2]: Cc1ccc(C(=O)Nc2cccc(C(F)(F)F)c2)cc1Nc1cncc(C(N)=O)c1 [ALW-II-49-7] + N=C(N)NC(=N)NCCc1ccccc1 [Phenformin] (partner 250 µM)
In short, it runs like this:
as §1

Compound in test [3]: Cc1ccc(C(=O)Nc2cccc(C(F)(F)F)c2)cc1Nc1cncc(C(N)=O)c1 [ALW-II-49-7] + O=C(CCCCCCC(=O)Nc1ccccc1)NO [Vorinostat] (partner 1 µM)
Put shortly: as §1

Compound in test [4]: Cc1nc(Nc2ncc(C(=O)Nc3c(C)cccc3Cl)s2)cc(N2CCN(CCO)CC2)n1 [Dasatinib] + Nc1ncn([C@H]2C[C@H](O)[C@@H](CO)O2)c(=O)n1 [Decitabine] (partner 2 µM)
In short, it runs like this:
as §1

UMC-11: the relative viability turned out to be 0.307 in test [1] (first compound 0.005 µM); 0.332 in test [1] (first compound 0.01581 µM); 0.265 in test [1] (first compound 0.05 µM); 0.234 in test [1] (first compound 0.1581 µM); 0.171 in test [1] (first compound 0.5 µM); 0.347 in test [2] (first compound 0.08 µM). In addition, the relative viability was found to be 0.372 in test [2] (first compound 0.253 µM); 0.352 in test [2] (first compound 0.8 µM); 0.304 in test [2] (first compound 2.53 µM); 0.268 in test [2] (first compound 8 µM); 0.36 in test [3] (first compound 0.08 µM); 0.381 in test [3] (first compound 0.253 µM). Also, the relative viability in test [3] (first compound 0.8 µM) worked out at 0.324; in test [3] (first compound 2.53 µM) it was 0.357; in test [3] (first compound 8 µM) it was 0.305; in test [4] (first compound 0.005 µM) it was 0.58; in test [4] (first compound 0.01581 µM), 0.595; in test [4] (first compound 0.05 µM) it was 0.532. Further, the results for the relative viability in test [4] (first compound 0.1581 µM) and in test [4] (first compound 0.5 µM) were 0.292 and 0.246, respectively.
